# Data published in ChEMBL document CHEMBL1221225, “A small molecule that directs differentiation of human ESCs into the pancreatic lineage” (Nat Chem Biol, 2009).
# How the values were obtained:
# Format in all cases: cell-based
# [1] = Activation of PKC signaling in human HUES8 cells assessed as increase in Pdx1-expressing cells at 14 nM after 4 days by immunocytochemistry pregrown in medium with Wnt3a, activin A, FGF10, KAAD-cyclopamine and retinoic acid relative to ILV treated cells
# [2] = Activation of PKC signaling in human HUES8 definitive endoderm cells assessed as increase in Pdx1-expressing cells at 14 nM after 4 days by immunocytochemistry (reference value: 2.8+/-0.6%)
# [3] = Activation of PKC signaling in human HUES8 cells assessed as increase in Pdx1-expressing cells at 500 nM after 4 days by immunocytochemistry pregrown in medium with Wnt3a, activin A, FGF10, KAAD-cyclopamine and retinoic acid relative to ILV treated cells
# [4] = Activation of PKC signaling in human HUES8 definitive endoderm cells assessed as increase in Pdx1-expressing cells at 500 nM after 4 days by immunocytochemistry (reference value: 2.8+/-0.6%)
Structure (SMILES),inhibition [1] [%],inhibition [2] [%],inhibition [3] [%],inhibition [4] [%]
CCCCCCCCCCCCCC(=O)O[C@@H]1[C@@H](C)[C@@]2(O)[C@@H](C=C(CO)C[C@]3(O)C(=O)C(C)=C[C@@H]23)[C@@H]2C(C)(C)[C@]12OC(C)=O,21.3,18.3,,
CC(C)[C@H]1C(=O)N[C@H](CO)Cc2cc(NC(=O)/C=C/C=C/c3ccc(C(F)(F)F)cc3)ccc2N1C,,,15.4,12.2
